# Experiments:
# [1] = molecular target: T1, Steroid 5-alpha-reductase (Rattus norvegicus, UniProt P24008+P31214); assay: In vitro inhibitory activity against rat testosterone 5 alpha reductase was determined; type: protein assay
# T1 sequence (P24008 whole entry): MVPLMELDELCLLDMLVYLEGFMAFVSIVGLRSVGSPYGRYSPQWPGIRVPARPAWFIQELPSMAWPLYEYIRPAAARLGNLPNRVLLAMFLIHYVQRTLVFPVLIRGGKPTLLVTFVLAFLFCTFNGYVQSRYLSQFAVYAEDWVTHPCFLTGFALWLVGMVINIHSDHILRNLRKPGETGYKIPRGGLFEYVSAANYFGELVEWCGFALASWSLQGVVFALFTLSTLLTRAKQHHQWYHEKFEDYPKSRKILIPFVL
# T1 sequence (P31214 whole entry): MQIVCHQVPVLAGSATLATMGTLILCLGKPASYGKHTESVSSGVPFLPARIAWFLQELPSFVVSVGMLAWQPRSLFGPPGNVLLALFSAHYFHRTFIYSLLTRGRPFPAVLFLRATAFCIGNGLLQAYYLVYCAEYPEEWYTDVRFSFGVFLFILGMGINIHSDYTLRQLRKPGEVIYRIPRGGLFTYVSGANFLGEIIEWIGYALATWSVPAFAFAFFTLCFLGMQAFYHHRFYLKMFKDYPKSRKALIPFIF
# [2] = molecular target: T2, 3-oxo-5-alpha-steroid 4-dehydrogenase 1 (Homo sapiens, UniProt P18405); assay: In vitro inhibitory activity against human Steroid 5-alpha-reductase type 1 in COS-1 cells was determined; type: cell-based
# T2 sequence (P18405 whole entry): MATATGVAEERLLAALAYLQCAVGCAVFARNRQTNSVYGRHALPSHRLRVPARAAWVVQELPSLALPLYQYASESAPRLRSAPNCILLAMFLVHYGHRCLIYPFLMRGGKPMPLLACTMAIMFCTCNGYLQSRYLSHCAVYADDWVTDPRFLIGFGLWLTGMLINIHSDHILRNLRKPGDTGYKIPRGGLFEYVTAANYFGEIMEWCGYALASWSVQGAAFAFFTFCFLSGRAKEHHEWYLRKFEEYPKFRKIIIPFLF
# [3] = molecular target: T3, 3-oxo-5-alpha-steroid 4-dehydrogenase 2 (Homo sapiens, UniProt P31213); assay: In vitro inhibitory activity against human Steroid 5-alpha-reductase type 2 in COS-1 cells was determined; type: cell-based
# T3 sequence (P31213 whole entry): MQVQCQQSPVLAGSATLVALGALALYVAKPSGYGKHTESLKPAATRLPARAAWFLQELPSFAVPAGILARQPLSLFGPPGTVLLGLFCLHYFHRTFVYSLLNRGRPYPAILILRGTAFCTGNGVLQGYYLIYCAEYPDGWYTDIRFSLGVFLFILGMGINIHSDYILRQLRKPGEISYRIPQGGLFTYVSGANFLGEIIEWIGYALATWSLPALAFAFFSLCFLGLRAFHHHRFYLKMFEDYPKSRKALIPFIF
Compound,IC50 [1],IC50 [2],IC50 [3]
O=C(O)CCCOc1ccccc1-c1cc2cc(C(=O)NC(c3ccc(F)cc3)c3ccc(F)cc3)ccc2o1,279 nM,–,–
CC(C)Cc1ccc(C(Nc2cccc(C(=O)c3cn(CCCC(=O)O)c4ccccc34)c2)c2ccc(CC(C)C)cc2)cc1,118 nM,3 nM,11 nM
O=C(O)CCCOc1ccccc1-c1cc2cc(C(=O)NC(c3ccccc3)c3ccccc3)ccc2o1,155 nM,310 nM,> 100000 nM
O=C(O)CCCOc1ccccc1-c1cc2ccc(C(=O)NC(c3ccccc3)c3ccccc3)cc2o1,28.5 nM,62 nM,270 nM
COc1ccc(C(NC(=O)c2ccc3cc(-c4ccccc4OCCCC(=O)O)oc3c2)c2ccc(OC)cc2)cc1,35.5 nM,130 nM,930 nM
O=C(O)CCCOc1ccccc1-c1cc2ccc(C(=O)NC(c3ccc(F)cc3)c3ccc(F)cc3)cc2o1,37.9 nM,50 nM,340 nM
COc1ccc(C(NC(=O)c2ccc3oc(-c4ccccc4OCCCC(=O)O)cc3c2)c2ccc(OC)cc2)cc1,26.3 nM,–,–

# From ChEMBL document CHEMBL1131643, “Synthesis and 5 alpha-reductase inhibitory activities of benzofuran derivatives with a carbamoyl group” (Bioorg Med Chem Lett, 1998)
